The values below are quoted from earlier work in patent US20210045998A1 (priority 2018, published 2021).

Structures are written as SMILES.

For this series the following is noted: in vivo.

Take `CC1=CC[C@H]2C[C@@H]1C2(C)C` [α-Pinene, (1S,5S)-2,6,6-Trimethylbicyclo[3.1.1]hept-2-ene]: the human pulmonary uptake is 60%.
